{"source": "patent US20230271925A1", "about": "“NOVEL TNF ACTIVITY INHIBITOR COMPOUND, AND PHARMACEUTICALLY ACCEPTABLE SALT THEREOF” (ILAB, priority 2020, published 2023)", "key": {"[1]": {"tested_on": "TNF-induced death of C57BL/6 mice", "test": "TNF-induced mouse lethality assay", "type": "in vivo", "conditions": "for Survival (%): C57BL/6 male mice, 20 or 40 mg/kg p.o. 30 min before hTNF 8 μg/kg + D-galactosamine 700 mg/kg i.p., 24 hours; for survival rate of mice compared to the control group: C57BL/6 mice, pre-treated p.o., TNF + D-galactosamine", "method": "In this experiment, the TNF-induced mouse death inhibition activity by the compound of the present invention was investigated. To this end, mice were pretreated with the compound of the present invention, and the survival rate of the mice was measured against TNF-induced death.\nIn particular, after C57BL/6 mice were fasted for 24 hours, 100 μL of the compounds of Examples 2, 32, 39, 40, 44, 47, and 48 in a buffer composition of 10% DMSO in 90% PBS was orally administered at a concentration of 20 or 40 mg/kg. After 30 minutes, a mixed solution of human recombinant TNF 8 μg/kg and D-galactosamine 700 mg/kg in PBS buffer was intraperitoneally administered at 100 μL per mouse, the survival rate of mice was measured every 3 hours from the time of intraperitoneal administration and the experiment was terminated 24 hours later. The mice were divided into 5 groups, the experiment was repeated 5 times, and the Example compounds used for each experiment are as shown in FIG. 7(a, b)."}, "[2]": {"tested_on": "mouse fibroblast L929 cells", "test": "TNF-induced apoptosis inhibitory activity in L929 cells (MTS assay)", "type": "cell-based", "conditions": "TNF 20 ng/mL + actinomycin D, compound 0 to 40 μM, 24 hours, read-out: IC50, inhibition of TNF-induced apoptosis", "method": "In this experiment, the TNF-induced apoptosis inhibitory activity by the compound of the present invention was investigated. To this end, mouse fibroblasts were treated with the chromenone and quinolone derivative compounds prepared in the above Examples, and then cell viability was measured by a conventionally known MTS assay.\nMouse fibroblast L929 cells were purchased from the American Type Culture Collection (ATCC Manassas, Va.), and then cultured in RPMI medium containing 10% Fetal Bovine Serum (FBS) and 1% antibiotics at the incubator in which 5% CO2 and humidity at 37° C. were maintained.\nMouse fibroblast L929 cells were treated with recombinant TNF and actinomycin D, a sensitizer, to induce apoptosis, with which an assay capable of confirming apoptosis inhibitory activity was established. In particular, apoptosis conditions were induced by adding actinomycin D as a sensitizer and TNF (20 ng/mL) to […], and then L929 cells were pretreated with the compounds of Examples 52, 54, and 55 at a concentration of 0 to 40 μM for 24 hours. After 24 hours, they were treated with MTS for 3 hours, and then the absorbance was measured at 490 nm to calculate IC50 values. % Inhibition of TNF was calculated by the following formula.\n% Inhibition of TNF=(OD value of the group treated with the compound−OD value of the group treated with TNF and actinomycin D)/(OD value of the group treated with actinomycin D−OD value of the group treated with TNF and actinomycin D)×100\nIC50 values were statistically calculated using Prism 6 (GraphPad) (IC50: 50% inhibitory concentration)."}, "[3]": {"tested_on": "HEK-Blue TNF cells", "test": "Inhibition of TNF response in HEK-Blue TNF cells (SEAP reporter gene assay)", "type": "cell-based", "conditions": "Homo sapiens, TNF 0.2 ng/mL, absorbance 620 nm", "method": "In this experiment, the TNF-inhibitory activity of the compound of the present invention was evaluated in HEK-Blue TNF cells. To this end, the transformed HEK-Blue TNF cells that respond specifically to the binding of TNF to TNFRs on the cell surface were treated with the compound of Example 48, followed by a reporter gene assay.\nHEK-Blue TNF cells are human embryonic kidney cells that were transformed to express SEAP (secreted embryonic alkaline phosphatase) reporter gene having the binding site for activated NF-κB when TNF binds to TNFR on the cell surface and NF-κB is activated in the cell. […]\nAn experimental method was used in which SEAP, a reporter gene having the binding site for activated NF-κB in the intracellular signal transduction process, is expressed when human embryonic kidney cells, HEK-Blue TNF cells, are treated with recombinant TNF. In particular, SEAP is expressed when TNF (0.2 ng/mL) is added to HEK-Blue TNF cells, and the degree of color development is measured by treating the SEAP-specific QUANTI-Blue™ solution followed by reading absorbance at 620 nm to obtain IC50 value. The inhibition rate (%) of TNF was calculated by the following formula. […]\n(§1) IC50 values were statistically calculated using Prism 6 (GraphPad)."}, "[4]": {"target": "TNF-TNFR1 (Homo sapiens, UniProt P01375)", "sequence (P01375 77-233 limits assumed)": "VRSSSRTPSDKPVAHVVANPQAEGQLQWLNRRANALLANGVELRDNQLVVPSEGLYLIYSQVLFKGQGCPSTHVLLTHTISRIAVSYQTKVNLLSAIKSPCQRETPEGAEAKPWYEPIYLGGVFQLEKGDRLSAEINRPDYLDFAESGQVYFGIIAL", "test": "TNF-TNFR1 binding inhibition, FRET assay", "conditions": "for pIC50: FRET (HTRF ratio), 0.25 nM TNF, 0.25 nM His-labeled TNFR1", "method": "(§2) In this experiment, the inhibitory activity of the compound of the present invention was evaluated using a fluorescence resonance energy transfer (FRET) assay to measure the binding of TNF-TNFR1 or TNF-TNFR2.\n(§3) In particular, biotin-labeled 0.25 nM TNF, XL-665-labeled streptavidin, 0.25 nM His-labeled TNFR1, 1 nM His-labeled TNFR2, and Europium-Gold-labeled anti-his Ab were used. First, each 2 μL (10% DMSO) of the compounds of Examples 48 and 51 was added in 384 wells. After 4 μL of 0.25 nM TNF was added, 4 μL of each of 0.25 nM His-labeled TNFR1 or 1 nM His-labeled TNFR2 was added thereto and incubated at room temperature for 1 hour. After 1 hour incubation, 5 μL of XL-665-labeled streptavidin and 5 μL of Europium-Gold-labeled anti-his Ab were added and further incubated at room temperature. […] was measured at 622 nm and 665 nm. The reagent used at this time was prepared by dissolving in PPI-europium detection buffer.\n(§4) First, binding inhibitory activity of the compounds of the present invention to TNF and TNFR1 or TNFR2 was evaluated at a single concentration ([…]) of the compounds.\n(§5) Then, IC50 values were obtained with the various concentrations of the compounds of Examples 48 and 51. At this time, the value was confirmed through the HTRF ratio, and the HTRF ratio was calculated by the following formula.\nas §1"}, "[5]": {"target": "TNF-TNFR2 (Homo sapiens, UniProt P01375)", "sequence (P01375 77-233 limits assumed)": "as above", "test": "TNF-TNFR2 binding inhibition, FRET assay", "conditions": "for pIC50: FRET (HTRF ratio), 0.25 nM TNF, 1 nM His-labeled TNFR2", "method": "as §2, §3, §4, §5, §1"}, "[6]": {"tested_on": "RIP1", "test": "RIP1 ubiquitination, immunoprecipitation with TNFR1 in human peripheral blood T cells", "type": "cell-based", "conditions": "compound 0.1 μM 24 hours, then TNF 10 minutes, vs hTNF alone", "method": "Two experiments were conducted to examine the TNF-cell signal transduction inhibitory activity by the compound of the present invention. First, immunoprecipitation was performed to evaluate the ubiquitination of an upstream protein of the TNF signaling pathway, that is, RIP1.\nIn particular, human peripheral blood T cells were treated with the compound of Example 48 (0, 0.1 μM) for 24 hours followed by with TNF for 10 minutes, and then immunoprecipitation was performed with TNFR1 protein."}, "[7]": {"tested_on": "TNF-cell signal transduction pathway", "test": "TNF-cell signal transduction, Western blot in L929 cells", "type": "cell-based, mouse", "conditions": "hTNF 10 ng/ml + compound 0.01, 0.1, 1, 10 μM, vs hTNF alone", "method": "Second, the inhibition of TNF signal transduction activity of Example 48 was confirmed. In order to examine the TNF-cell signal transduction inhibitory activity by the compound of the present invention, Western blot analysis was performed on proteins of the signal transduction pathway, namely phospho-p65, phospho-IKKα/β, phospho-SAPK/JNK, and phospho-AKT.\nIn particular, hTNF alone (10 ng/ml) or a mixture of hTNF and the compound of Example 48 (0.01, 0.1, 1, 10 μM) was incubated for 30 minutes, and then the incubated mixture was applied to mouse fibroblast L929 cells for 10 minutes. After the treatment, Western blot analysis was performed for phospho-p65, phospho-IKKα/β, phospho-SAPK/JNK, and phospho-AKT."}, "[8]": {"conditions": "single concentration (10 PM), FIG. 4"}}, "note": "pIC50: −log10 of the molar value. Marks after values point to notes of the source that are not given here."}
{"compound": "O=c1c(O)c(-c2cc(F)ccc2F)oc2cc(Cl)ccc12", "note": "[Example 32, 7-chloro-2-(2,5-difluorophenyl)-3-hydroxy-4H-chromen-4-one]", "values": [{"measurement": "Survival (%)", "setting": "[1]", "value": "90 *** %"}, {"measurement": "survival rate of mice compared to the control group", "setting": "[1]", "value": "increased"}]}
{"compound": "COc1ccc2c(=O)c(O)c(-c3cc(F)cc(F)c3)oc2c1", "note": "[Example 39, 2-(3,5-difluorophenyl)-3-hydroxy-7-methoxy-4H-chromen-4-one]", "values": [{"measurement": "Survival (%)", "setting": "[1]", "value": 40, "unit": "%"}, {"measurement": "survival rate of mice compared to the control group", "setting": "[1]", "value": "increased"}]}
{"compound": "O=C(NCCNC(=O)c1c(-c2cc(F)ccc2F)oc2cc(Cl)ccc2c1=O)c1c(-c2cc(F)ccc2F)oc2cc(Cl)ccc2c1=O", "note": "[Example 52, N,N′-(ethane-1,2-diyl)bis(7-chloro-2-(2,5-difluorophenyl)-4-oxo-4H-chromene-3-carboxamide)]", "values": [{"measurement": "pIC50", "setting": "[2]", "value": 5.83}]}
{"compound": "O=C(NCCCCNC(=O)c1c(-c2cc(F)ccc2F)oc2cc(Cl)ccc2c1=O)c1c(-c2cc(F)ccc2F)oc2cc(Cl)ccc2c1=O", "note": "[Example 54, N,N′-(butane-1,4-diyl)bis(7-chloro-2-(2,5-difluorophenyl)-4-oxo-4H-chromene-3-carboxamide)]", "values": [{"measurement": "pIC50", "setting": "[2]", "value": 5.14}]}
{"compound": "COc1c(-c2cc(F)cc(F)c2)oc2cc(F)ccc2c1=O", "note": "[Example 44, 2-(3,5-difluorophenyl)-7-fluoro-3-methoxy-4H-chromen-4-one]", "values": [{"measurement": "Survival (%)", "setting": "[1]", "value": "60 ** %"}, {"measurement": "survival rate of mice compared to the control group", "setting": "[1]", "value": "increased"}]}
{"compound": "O=C(O)c1c(-c2cc(F)ccc2F)[nH]c2cc(Cl)ccc2c1=O", "note": "[Example 2, 2-(2,5-difluorophenyl)-3-carboxy-7-chloro-4-(1H)-quinolone]", "values": [{"measurement": "Survival (%)", "setting": "[1]", "value": 60, "unit": "%"}, {"measurement": "survival rate of mice compared to the control group", "setting": "[1]", "value": "increased"}]}
{"compound": "O=C(O)c1c(-c2ccc(OCCOc3ccc(-c4oc5cc(Cl)ccc5c(=O)c4C(=O)O)c(F)c3)cc2F)oc2cc(Cl)ccc2c1=O", "note": "[Example 48, 2,2′-((ethane-1,2-diylbis(oxy))bis(2-fluoro-4,1-phenylene))bis(7-chloro-4-oxo-4H-chromene-3-carboxylic acid)]", "values": [{"measurement": "pIC50", "setting": "[3]", "value": 5.01}, {"measurement": "pIC50", "setting": "[4]", "value": 5.45}, {"measurement": "binding inhibitory activity, TNF and TNFR1", "setting": "[4]; [8]", "value": "inhibit the binding"}, {"measurement": "binding inhibitory effect compared with SPD304 and Quercetin, TNF-TNFR1", "setting": "[4]; [8]", "value": "higher binding inhibitory effect than SPD304"}, {"measurement": "pIC50", "setting": "[5]", "value": 5.41}, {"measurement": "binding inhibitory activity, TNF and TNFR2", "setting": "[5]; [8]", "value": "inhibit the binding"}, {"measurement": "binding inhibitory effect compared with SPD304 and Quercetin, TNF-TNFR2", "setting": "[5]; [8]", "value": "higher binding inhibitory effect than SPD304"}, {"measurement": "degree of RIP1 ubiquitination activated by TNF", "setting": "[6]", "value": "reduced"}, {"measurement": "level of phospho-AKT", "setting": "[7]", "value": "reduced"}, {"measurement": "level of phospho-IKKα/β", "setting": "[7]", "value": "reduced"}, {"measurement": "level of phospho-SAPK/JNK", "setting": "[7]", "value": "reduced"}, {"measurement": "level of phospho-p65", "setting": "[7]", "value": "reduced"}, {"measurement": "Survival (%)", "setting": "[1]", "value": "50 * %"}, {"measurement": "survival rate of mice compared to the control group", "setting": "[1]", "value": "increased"}]}
{"compound": "COc1c(-c2cc(F)ccc2F)oc2cc(Cl)ccc2c1=O", "note": "[Example 40, 7-chloro-2-(2,5-difluorophenyl)-3-methoxy-4H-chromen-4-one]", "values": [{"measurement": "Survival (%)", "setting": "[1]", "value": "50 * %"}, {"measurement": "survival rate of mice compared to the control group", "setting": "[1]", "value": "increased"}]}
{"compound": "O=C(c1c(-c2cc(F)ccc2F)oc2cc(Cl)ccc2c1=O)N1CCN(C(=O)c2c(-c3cc(F)ccc3F)oc3cc(Cl)ccc3c2=O)CC1", "note": "[Example 55, 3,3′-(piperazine-1,4-dicarbonyl)bis(7-chloro-2-(2,5-difluorophenyl)-4H-chromen-4-one)]", "values": [{"measurement": "pIC50", "setting": "[2]", "value": 5.12}]}
{"compound": "COc1ccc2c(=O)c(OC)c(-c3ccc(F)cc3F)oc2c1", "note": "[Example 47, 2-(2,4-difluorophenyl)-3,7-dimethoxy-4H-chromen-4-one]", "values": [{"measurement": "Survival (%)", "setting": "[1]", "value": "40 * %"}, {"measurement": "survival rate of mice compared to the control group", "setting": "[1]", "value": "increased"}]}
{"compound": "O=C(O)c1c(-c2ccc(OCCOCCOc3ccc(-c4oc5cc(Cl)ccc5c(=O)c4C(=O)O)c(F)c3)cc2F)oc2cc(Cl)ccc2c1=O", "note": "[Example 51, 2,2′-(((oxybis(ethane-2,1-diyl))bis(oxy))bis(2-fluoro-4,1-phenylene))bis(7-chloro-4-oxo-4H-chromene-3-carboxylic acid)]", "values": [{"measurement": "pIC50", "setting": "[4]", "value": 4.84}, {"measurement": "binding inhibitory activity, TNF and TNFR1", "setting": "[4]; [8]", "value": "inhibit the binding"}, {"measurement": "pIC50", "setting": "[5]", "value": 4.65}, {"measurement": "binding inhibitory activity, TNF and TNFR2", "setting": "[5]; [8]", "value": "inhibit the binding"}]}
